This experiment addresses transient receptor potential ankyrin 1 (TRPA1) (Rattus norvegicus, UniProt Q6RI86). Briefly: whole-cell patch clamp in primary rat beta cells (MG in pipette); also currents in TRPA1-transfected HEK293T cells and siRNA-sensitive Ca2+ influx. Format: cell-based.

The source of these data is article PMC3365106, “Expression of Transient Receptor Potential Ankyrin 1 (TRPA1) and Its Role in Insulin Release from Rat Pancreatic Beta Cells” (PLoS ONE, 2012).

Sequence of transient receptor potential ankyrin 1 (TRPA1) (Q6RI86 whole entry): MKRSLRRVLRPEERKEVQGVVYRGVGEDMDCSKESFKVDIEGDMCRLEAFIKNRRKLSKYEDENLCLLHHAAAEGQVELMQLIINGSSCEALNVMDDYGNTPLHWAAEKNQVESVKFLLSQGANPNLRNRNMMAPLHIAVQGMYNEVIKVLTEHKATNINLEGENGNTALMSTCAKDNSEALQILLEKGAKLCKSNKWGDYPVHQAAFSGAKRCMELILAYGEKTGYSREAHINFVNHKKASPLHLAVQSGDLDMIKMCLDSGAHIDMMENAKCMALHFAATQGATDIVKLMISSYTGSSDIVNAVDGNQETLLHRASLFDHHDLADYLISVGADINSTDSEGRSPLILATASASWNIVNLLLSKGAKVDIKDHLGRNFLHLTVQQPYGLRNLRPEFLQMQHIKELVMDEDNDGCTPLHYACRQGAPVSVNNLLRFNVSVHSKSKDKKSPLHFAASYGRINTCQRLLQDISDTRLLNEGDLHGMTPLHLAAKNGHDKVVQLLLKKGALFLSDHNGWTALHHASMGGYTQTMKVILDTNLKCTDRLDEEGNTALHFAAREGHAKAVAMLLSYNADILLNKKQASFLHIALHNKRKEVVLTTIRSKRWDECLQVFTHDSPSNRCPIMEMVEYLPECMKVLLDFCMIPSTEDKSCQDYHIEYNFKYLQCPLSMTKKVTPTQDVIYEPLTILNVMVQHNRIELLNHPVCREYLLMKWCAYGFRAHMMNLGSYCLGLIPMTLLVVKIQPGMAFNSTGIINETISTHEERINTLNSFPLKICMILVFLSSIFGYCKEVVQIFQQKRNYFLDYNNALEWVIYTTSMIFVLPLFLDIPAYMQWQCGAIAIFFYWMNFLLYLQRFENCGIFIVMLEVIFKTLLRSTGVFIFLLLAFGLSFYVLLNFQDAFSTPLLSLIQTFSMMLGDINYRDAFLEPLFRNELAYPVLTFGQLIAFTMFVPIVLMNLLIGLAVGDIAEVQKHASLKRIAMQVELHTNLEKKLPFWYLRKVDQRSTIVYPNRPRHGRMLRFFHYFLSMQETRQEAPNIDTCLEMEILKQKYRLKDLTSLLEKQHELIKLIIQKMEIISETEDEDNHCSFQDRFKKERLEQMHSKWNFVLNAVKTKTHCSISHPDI

`CC(=O)C=O` [MG, methylglyoxal]: the 50% effective concentration (EC50) came out at 590 nM.

Usually EC50 stands for the concentration needed to bring the measured effect to its halfway point. The low end stands for greater potency, the high end for weaker potency.
